# Laboratory results: ChEMBL document CHEMBL1201862, “PubChem BioAssay data set” (2004)
#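 Five concentrations, 48 hours, 96-well plates. GI50: concentration for 50% inhibition of growth.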 Calls of active or inactive are those of the source. No stated cut-off is given here; in the data, active = GI50 up to about 1.1 µM and inactive = higher.
# Columns and labels:
# Assay in all cases: growth of human tumour cells (NCI), 48 h
# CCRF-CEM = test system: CCRF-CEM
# HCC 2998 = test system: HCC 2998
# HCT-116 = test system: HCT-116
# HL-60 = test system: HL-60
# HOP-62 = test system: HOP-62
# K562 = test system: K562
# M14 = test system: M14
# MCF7 = test system: MCF7
# Malme-3M = test system: Malme-3M
# OVCAR-3 = test system: OVCAR-3
# RPMI-8226 = test system: RPMI-8226
# SF-295 = test system: SF-295
# SF-539 = test system: SF-539
# SK-MEL-28 = test system: SK-MEL-28
# SK-MEL-5 = test system: SK-MEL-5
# SK-OV-3 = test system: SK-OV-3
# SNB-75 = test system: SNB-75
# UACC-257 = test system: UACC-257
# UO-31 = test system: UO-31
# SR = test system: SR
Structure (SMILES),GI50 (CCRF-CEM),GI50 (HCC 2998),GI50 (HCT-116),GI50 (HL-60),GI50 (HOP-62),GI50 (K562),GI50 (M14),GI50 (MCF7),GI50 (Malme-3M),GI50 (OVCAR-3),GI50 (RPMI-8226),GI50 (SF-295),GI50 (SF-539),GI50 (SK-MEL-28),GI50 (SK-MEL-5),GI50 (SK-OV-3),GI50 (SNB-75),GI50 (UACC-257),GI50 (UO-31),GI50 (SR)
SC1=Nc2ccccc2-c2nc(-c3ccccc3)cc(-c3ccc(Br)cc3)c2C1,1.88 µM (inactive),3.17 µM (inactive),1.64 µM (inactive),18.4 µM (inactive),1.31 µM (inactive),2.9 µM (inactive),2.4 µM (inactive),4.59 µM (inactive),2.59 µM (inactive),2.29 µM (inactive),15.8 µM (inactive),1.89 µM (inactive),3.27 µM (inactive),11.2 µM (inactive),8.3 µM (inactive),0.897 µM (active),1.26 µM (inactive),3.15 µM (inactive),1.57 µM (inactive),
C[C@@H]1CC[C@H]2[C@H]1[C@H]1[C@@H](CC[C@]2(C)N=C=S)C1(C)C,13.3 µM (inactive),16.1 µM (inactive),17.9 µM (inactive),19.1 µM (inactive),31.8 µM (inactive),16.2 µM (inactive),18.5 µM (inactive),17.5 µM (inactive),22.5 µM (inactive),19.3 µM (inactive),17.2 µM (inactive),21.4 µM (inactive),,21.1 µM (inactive),17.5 µM (inactive),49.3 µM (inactive),50.5 µM (inactive),25.8 µM (inactive),32.1 µM (inactive),22.1 µM (inactive)
N#C[C@H](OC1OC(COC2OC(CO)C(O)C(O)C2O)C(O)C(O)C1O)c1ccccc1 (stereo partly specified),> 250 µM (inactive),> 250 µM (inactive),> 250 µM (inactive),158 µM (inactive),> 250 µM (inactive),> 250 µM (inactive),,> 250 µM (inactive),> 250 µM (inactive),> 250 µM (inactive),> 250 µM (inactive),203 µM (inactive),> 214 µM (inactive),> 250 µM (inactive),> 250 µM (inactive),> 250 µM (inactive),> 250 µM (inactive),234 µM (inactive),> 250 µM (inactive),
CCCCCCCCCCCCCC(=O)OC1C(O)C(CO)OC(OC)C1NC(=O)N(CCCl)N=O (stereo unspecified),,> 100 µM (inactive),,,50.7 µM (inactive),> 100 µM (inactive),> 100 µM (inactive),,> 100 µM (inactive),> 100 µM (inactive),30.8 µM (inactive),29 µM (inactive),16.4 µM (inactive),> 100 µM (inactive),45.2 µM (inactive),,38.6 µM (inactive),28.8 µM (inactive),> 100 µM (inactive),23.2 µM (inactive)
Cc1ccc(NC(=O)OCC(COc2ccc(Cl)cc2)OC(=O)Nc2ccc(C)cc2)cc1 (stereo unspecified),9.93 µM (inactive),39 µM (inactive),20.7 µM (inactive),0.938 µM (active),26.6 µM (inactive),9.27 µM (inactive),17.1 µM (inactive),,19 µM (inactive),14.6 µM (inactive),9.77 µM (inactive),23.5 µM (inactive),21.6 µM (inactive),35.1 µM (inactive),24.5 µM (inactive),58.6 µM (inactive),14.5 µM (inactive),21.9 µM (inactive),11.9 µM (inactive),> 100 µM (inactive)
N#Cc1ccc(C2Oc3ccc(Cl)cc3C=C2[N+](=O)[O-])cc1 (stereo unspecified),0.219 µM (active),0.979 µM (active),0.522 µM (active),0.841 µM (active),1.98 µM (inactive),0.354 µM (active),1.36 µM (inactive),1.4 µM (inactive),2.11 µM (inactive),1.63 µM (inactive),0.334 µM (active),2.87 µM (inactive),1.87 µM (inactive),1.82 µM (inactive),1.38 µM (inactive),2.27 µM (inactive),1.47 µM (inactive),2.4 µM (inactive),1.63 µM (inactive),0.157 µM (active)
O=C1CCC23CC(C=CC=C12)n1c(=O)n(-c2ccccc2)c(=O)n13 (stereo unspecified),42.4 µM (inactive),> 100 µM (inactive),> 71.9 µM (inactive),31 µM (inactive),> 100 µM (inactive),39.8 µM (inactive),,10.9 µM (inactive),> 100 µM (inactive),> 100 µM (inactive),> 100 µM (inactive),> 100 µM (inactive),> 100 µM (inactive),> 69.2 µM (inactive),> 87.3 µM (inactive),> 100 µM (inactive),> 100 µM (inactive),> 100 µM (inactive),> 64.4 µM (inactive),
Cc1cc2c(cc1C)[n+]([O-])c(C#N)c(Cl)[n+]2[O-],4.92 µM (inactive),11 µM (inactive),14.1 µM (inactive),7.78 µM (inactive),19.6 µM (inactive),10.3 µM (inactive),,12.9 µM (inactive),12.9 µM (inactive),7.78 µM (inactive),12.3 µM (inactive),23.7 µM (inactive),14.3 µM (inactive),14.1 µM (inactive),11.9 µM (inactive),16.4 µM (inactive),1.88 µM (inactive),13.8 µM (inactive),12 µM (inactive),3.82 µM (inactive)
CC(C)=CCC/C(C)=C/C=C/C(C)=C/C1C[C@@]2(C(O)O1)[C@H](CCCO)/C(=C(/C)C=O)CC[C@]2(C)O (stereo partly specified),,15 µM (inactive),20.2 µM (inactive),11.1 µM (inactive),,8.89 µM (inactive),13.5 µM (inactive),,4.59 µM (inactive),,,11.4 µM (inactive),12.2 µM (inactive),15.9 µM (inactive),,> 10 µM (inactive),51.9 µM (inactive),25.4 µM (inactive),17.3 µM (inactive),14.6 µM (inactive)
